Results published in PubChem BioAssay AID1963964 (Molecular Pharmacology Branch, DTP, NCI, 2024).

Test system: 997726-040-R-J2-PDC tumor spheroids, viability
Experiment: Anticancer human tumor 997726-040-R-J2-PDC patient-derived squamous cell lung carcinoma cell line growth inhibition [PI3K]
Conditions: spheroids with HUVEC and MSC; for IC50: curve of first compound; for viability, T/C: stronger effect = lower value; active = viability on the fitted dose curve at most 10% of control; inactive = the rest
In short: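 Spheroid viability read-out. Co-cultures contained the tumor line plus HUVEC and human MSCs. Each agent was paired with a PI3K inhibitor (inavolisib, alpelisib, duvelisib, copanlisib) across half-log dilutions starting at clinical Cmax, or at 10 microM when Cmax was unknown.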
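Note: spheroids exposed to compounds for seven days before readout.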

Cn1cnc2c(F)c(Nc3ccc(Br)cc3Cl)c(C(=O)NOCCO)cc21 + CC(Nc1ccc2c(c1)OCCn1cc(N3C(=O)OCC3C(F)F)nc1-2)C(N)=O
inactive: viability, T/C (second compound 0.00316 µM, first compound 0.00949 µM) 70.5% | viability, T/C (second compound 0.00316 µM, first compound 0.03 µM) 65% | viability, T/C (second compound 0.00316 µM, first compound 0.0949 µM) 58.1% | viability, T/C (second compound 0.00316 µM, first compound 0.3 µM) 39.1% | viability, T/C (second compound 0.00316 µM, first compound 0.949 µM) 35.8% | viability, T/C (second compound 0.00316 µM, first compound 3 µM) 29.1% | viability, T/C (second compound 0.01 µM, first compound 0.00949 µM) 62% | viability, T/C (second compound 0.01 µM, first compound 0.03 µM) 59% | viability, T/C (second compound 0.01 µM, first compound 0.0949 µM) 47.6% | viability, T/C (second compound 0.01 µM, first compound 0.3 µM) 40.8% | viability, T/C (second compound 0.01 µM, first compound 0.949 µM) 39.2% | viability, T/C (second compound 0.01 µM, first compound 3 µM) 30.9% | viability, T/C (second compound 0.0316 µM, first compound 0.00949 µM) 49.1% | viability, T/C (second compound 0.0316 µM, first compound 0.03 µM) 50.8% | viability, T/C (second compound 0.0316 µM, first compound 0.0949 µM) 42.2% | viability, T/C (second compound 0.0316 µM, first compound 0.3 µM) 30.2% | viability, T/C (second compound 0.0316 µM, first compound 0.949 µM) 28.2% | viability, T/C (second compound 0.0316 µM, first compound 3 µM) 21.1% | viability, T/C (second compound 0.1 µM, first compound 0.00949 µM) 36.6% | viability, T/C (second compound 0.1 µM, first compound 0.03 µM) 42% | viability, T/C (second compound 0.1 µM, first compound 0.0949 µM) 33% | viability, T/C (second compound 0.1 µM, first compound 0.3 µM) 22.1% | viability, T/C (second compound 0.1 µM, first compound 0.949 µM) 21% | viability, T/C (second compound 0.1 µM, first compound 3 µM) 14% | viability, T/C (second compound 0.316 µM, first compound 0.00949 µM) 32.1% | viability, T/C (second compound 0.316 µM, first compound 0.03 µM) 27.9% | viability, T/C (second compound 0.316 µM, first compound 0.0949 µM) 23.7% | viability, T/C (second compound 0.316 µM, first compound 0.3 µM) 20.5% | viability, T/C (second compound 0.316 µM, first compound 0.949 µM) 14% | viability, T/C (second compound 0.316 µM, first compound 3 µM) 15% | viability, T/C (second compound 1 µM, first compound 0.00949 µM) 24.5% | viability, T/C (second compound 1 µM, first compound 0.03 µM) 22.4% | viability, T/C (second compound 1 µM, first compound 0.0949 µM) 21.7% | viability, T/C (second compound 1 µM, first compound 0.3 µM) 20.3% | viability, T/C (second compound 1 µM, first compound 0.949 µM) 15% | viability, T/C (second compound 1 µM, first compound 3 µM) 12.9%
82.4 nM: IC50 (second compound 0.01 µM)
13.8 nM: IC50 (second compound 0.0316 µM)
154 nM: IC50 (second compound 0.00316 µM)
< 9.49 nM: IC50 (second compound 0.1 µM) | IC50 (second compound 0.316 µM) | IC50 (second compound 1 µM)

C[C@@H](NC(=O)c1ncnc(N)c1Cl)c1ncc(C(=O)Nc2cc(C(F)(F)F)c(Cl)cn2)s1 + Cc1nc(NC(=O)N2CCCC2C(N)=O)sc1-c1ccnc(C(C)(C)C(F)(F)F)c1
inactive: viability, T/C (second compound 0.0316 µM, first compound 0.0316 µM) 101% | viability, T/C (second compound 0.0316 µM, first compound 0.1 µM) 115% | viability, T/C (second compound 0.0316 µM, first compound 0.316 µM) 111% | viability, T/C (second compound 0.0316 µM, first compound 1 µM) 107% | viability, T/C (second compound 0.0316 µM, first compound 3.16 µM) 102% | viability, T/C (second compound 0.0316 µM, first compound 10 µM) 68.2% | viability, T/C (second compound 0.1 µM, first compound 0.0316 µM) 96% | viability, T/C (second compound 0.1 µM, first compound 0.1 µM) 97.5% | viability, T/C (second compound 0.1 µM, first compound 0.316 µM) 99.5% | viability, T/C (second compound 0.1 µM, first compound 1 µM) 83.9% | viability, T/C (second compound 0.1 µM, first compound 3.16 µM) 66.3% | viability, T/C (second compound 0.1 µM, first compound 10 µM) 60.2% | viability, T/C (second compound 0.316 µM, first compound 0.0316 µM) 64.7% | viability, T/C (second compound 0.316 µM, first compound 0.1 µM) 62.4% | viability, T/C (second compound 0.316 µM, first compound 0.316 µM) 66.8% | viability, T/C (second compound 0.316 µM, first compound 1 µM) 76.3% | viability, T/C (second compound 0.316 µM, first compound 3.16 µM) 61.3% | viability, T/C (second compound 0.316 µM, first compound 10 µM) 47.7% | viability, T/C (second compound 1 µM, first compound 0.0316 µM) 49.4% | viability, T/C (second compound 1 µM, first compound 0.1 µM) 49.5% | viability, T/C (second compound 1 µM, first compound 0.316 µM) 45.3% | viability, T/C (second compound 1 µM, first compound 1 µM) 48.6% | viability, T/C (second compound 1 µM, first compound 3.16 µM) 42.8% | viability, T/C (second compound 1 µM, first compound 10 µM) 35.4% | viability, T/C (second compound 3.16 µM, first compound 0.0316 µM) 36.6% | viability, T/C (second compound 3.16 µM, first compound 0.1 µM) 39.9% | viability, T/C (second compound 3.16 µM, first compound 0.316 µM) 34.5% | viability, T/C (second compound 3.16 µM, first compound 1 µM) 33% | viability, T/C (second compound 3.16 µM, first compound 3.16 µM) 35.9% | viability, T/C (second compound 3.16 µM, first compound 10 µM) 21.2% | viability, T/C (second compound 10 µM, first compound 0.0316 µM) 15% | viability, T/C (second compound 10 µM, first compound 0.1 µM) 15.4% | viability, T/C (second compound 10 µM, first compound 0.316 µM) 18.4% | viability, T/C (second compound 10 µM, first compound 1 µM) 18.8% | viability, T/C (second compound 10 µM, first compound 3.16 µM) 19.6% | viability, T/C (second compound 10 µM, first compound 10 µM) 8.61%
58.9 nM: IC50 (second compound 1 µM)
> 10000 nM: IC50 (second compound 0.0316 µM) | IC50 (second compound 0.1 µM) | IC50 (second compound 0.316 µM)
< 31.6 nM: IC50 (second compound 3.16 µM) | IC50 (second compound 10 µM)
